Test results from patent US11833256B2, “Selective RARγ ligand-loaded nanoparticles for manipulation of targeted bone growth” (University Of Maryland, Baltimore, priority 2017, dated 2023).

What was measured:
[1] = tested on: Chick limb bud cells; experiment: Limb bud cell high density culture, cartilage matrix by Alcian blue; assay type: cell-based; details: RA 1 μM or AGN194310 100 nM for 6 days
Experimental: The limb bud cells were inoculated at a high density and treated with retinoids. Cartilage matrix accumulation was visualized by Alcian blue staining. […] Similar testing was described in Hoffman et al., J. Cell. Biol. 174:101-113, 2006. Chick limb bud cells were isolated from […], seeded at the density of 4×10^5 cells in 10 μL and maintained in 1% FBS containing high glucose DMEM for 3 days. Cultures then were treated with 0.1% EtOH (vehicle), retinoic acid (RA) 1 μM or AGN194310 100 nM for 6 days, fixed, and stained with Alcian Blue, pH 1.0.

[2] = Nanoparticle characterisation (size, drug loading); details: in PLA-based NP
Experimental: The drug loading of NP was determined spectrophotometrically against suitable calibration curves following two-step drug extraction in sec-butanol. Particle size measurements were performed by dynamic light scattering using a 90 Plus Particle Size Analyzer. An external sink method was applied for measuring drug release kinetics under sink conditions as follows: NP were diluted in PBS/2% bovine serum albumin and incubated with a water-immiscible acceptor medium (1-octanol and n-heptane, 1:1 v/v), and the released drug assayed spectrophotometrically in the acceptor medium samples at predetermined time-points.

[3] = tested on: heterotopic ossification (HO) in FOP patients; details: systemic palovarotene; top-line results of ongoing Phase II trial; cited from earlier work
[4] = Hydrophobicity of acetaminophen-capped prodrug derivative versus parent; assay type: physicochemical; details: acetaminophen-capped derivative vs parent retinoid
From the text: In order to produce an in situ activatable, reversibly hydrophobized prodrug derivatives of a RARγ agonist, a pro-drug can be delivered in a nanoparticle formulation. […] However, the ionizable carboxylic group promotes the partitioning of the compound from the particle to the surrounding aqueous medium. […] The compound would be activatable upon release can increase the stability of the particle-cargo association and help achieve a more lasting and highly localized therapeutic effect. Such constructs are in essence mutual prodrugs or co-drugs, as they regenerate in one step the retinoid compound and acetaminophen, a biologically active “helper” agent, which can play an important supporting role in therapy.

[5] = molecular target: T1, RARγ (Homo sapiens, UniProt P13631); experiment: Potency (ED50/EC50) of RARγ agonists
T1 sequence (P13631 1-454): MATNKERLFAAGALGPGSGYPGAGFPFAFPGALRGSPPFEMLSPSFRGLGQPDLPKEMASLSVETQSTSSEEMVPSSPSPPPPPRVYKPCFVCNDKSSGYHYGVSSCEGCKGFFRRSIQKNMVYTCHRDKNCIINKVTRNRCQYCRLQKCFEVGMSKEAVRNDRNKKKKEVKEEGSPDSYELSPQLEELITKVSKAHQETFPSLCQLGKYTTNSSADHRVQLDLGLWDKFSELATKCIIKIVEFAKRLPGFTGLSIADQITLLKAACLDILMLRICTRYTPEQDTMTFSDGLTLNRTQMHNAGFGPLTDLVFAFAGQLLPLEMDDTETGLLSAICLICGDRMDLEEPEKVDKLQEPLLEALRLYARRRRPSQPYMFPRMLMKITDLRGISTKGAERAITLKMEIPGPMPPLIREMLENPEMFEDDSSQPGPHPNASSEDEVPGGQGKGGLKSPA

[6] = tested on: heterotopic ossification (HO); experiment: Heterotopic ossification in FOP model mice, oral palovarotene; assay type: in vivo, mouse; details: oral administration
From the text: As discussed above, control and adjustment of specific long bone growth dysregulation requires achieving a highly localized and sustained therapeutic effect. Today, surgical resection combined with systemically administered anti-inflammatory drugs is the primary treatment modality for acquired HO. Treatment options for FOP are further limited. Because the surgical procedure itself can induce additional HO formation, systemic drug therapy aimed at reducing HO progression and related symptoms is the sole choice. […] However, despite the significant reduction in HO with this treatment regimen, systemic administration of the RARγ agonist fails to completely prevent the disease. Enhancing efficacy by increasing the systemic drug dosage may not be possible without causing strong and even toxic off-target effects. Thus, the inventive methods of treatment here increase the activity at the target site without inducing unwanted systemic effects using biodegradable nanoparticle (NP) formulations impregnated with a potent RARγ agonist capable of targeting specific areas of bone.
Acvr1cR206H/+; R26-rtTA; tetO-cre mice, treated with doxycycline to induce global expression of Acvr1cR206H/+, were subjected to hindlimb muscle injury with cardiotoxin and examined by μCT imaging 14 days after treatment with palovarotene (right) or vehicle (left). […]

## CCc1ccc(C2=CC(C)(C)Sc3ccc(C#Cc4ccc(C(=O)O)cc4)cc32)cc1 [AGN194310]
[1]
  cartilage matrix production / cartilage forming region (Alcian blue): enhanced

## CC(=O)Nc1ccc(OC(=O)c2ccc3cc(C4(c5ccc6c(c5)C(C)(C)CCC6(C)C)SCCS4)ccc3c2)cc1 [MM 11253 prodrug]
[2]
  average particle size: 565 nm
  drug loading: 1 mg/mL
  entrapment yield: 67%
  polydispersity index: < 0.1

## CC1(C)CCC(C)(C)c2cc(Cn3cccn3)c(/C=C/c3ccc(C(=O)O)cc3)cc21 [palovarotene]
[3]
  reduction of HO in patients: up to 70%
[4]
  more hydrophobic derivative if modified with acetaminophen: 15 fold
[5]
  potency (EC50) compared with NRX204647: inferior to that of NRX204647
[6]
  HO in FOP model mice: effectively reduces HO
